Results published in ChEMBL document CHEMBL5252668, “Targeting the "Undruggable" Driver Protein, KRASG12D, as Potential Therapy in Prostate Cancer” (ACS Med Chem Lett, 2023).

Experiments:
GTPase KRas [1] = molecular target: T1, GTPase KRas (Homo sapiens, UniProt P01116, G12D)
GTPase KRas [2] = molecular target: T1, GTPase KRas; remark: listed apart in the source

T1 sequence (P01116 whole entry G12D): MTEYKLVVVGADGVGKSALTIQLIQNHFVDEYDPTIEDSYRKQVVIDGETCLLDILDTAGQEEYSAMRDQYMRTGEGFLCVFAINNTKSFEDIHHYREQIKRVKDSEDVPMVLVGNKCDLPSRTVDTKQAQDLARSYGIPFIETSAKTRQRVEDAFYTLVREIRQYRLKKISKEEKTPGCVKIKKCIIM

Row | Compound | IC50 (GTPase KRas [1]) | IC50 (GTPase KRas [2])
1 | Oc1cc(-c2ncc3c(N4CCC[C@]5(CCO5)C4)nc(OC[C@@]45CCCN4C[C@H](F)C5)nc3c2F)c2c(Cl)c(F)ccc2c1 | 3 nM | 1 nM
2 | Oc1cc(-c2ncc3c(N4CCCC5(CCO5)C4)nc(OC[C@@]45CCCN4C[C@H](F)C5)nc3c2F)c2c(F)c(F)ccc2c1 (stereo not given in full) | 9 nM | 2 nM
3 | C#Cc1c(F)ccc2cc(O)cc(-c3ncc4c(N5CCCC6(CCO6)C5)nc(OC[C@@]56CCCN5C[C@H](F)C6)nc4c3F)c12 (stereo not given in full) | 43 nM | 1 nM
4 | CCc1c(F)ccc2cc(O)cc(-c3ncc4c(N5CCCC6(CCO6)C5)nc(OC[C@@]56CCCN5C[C@H](F)C6)nc4c3C)c12 (stereo not given in full) | 7 nM | 4 nM
5 | CCc1c(F)ccc2cc(O)cc(-c3ncc4c(N5CCCC6(CC(=O)N6)C5)nc(OC[C@@]56CCCN5C[C@H](F)C6)nc4c3F)c12 (stereo not given in full) | 44 nM | 2 nM
6 | CCc1cccc2cc(O)cc(-c3ncc4c(N5CCCC6(CCO6)C5)nc(OC[C@@]56CCCN5C[C@H](F)C6)nc4c3F)c12 (stereo not given in full) | 11 nM | 3 nM
7 | Oc1cc(-c2ncc3c(N4CCCC5(CC(O)C5)C4)nc(OC[C@@]45CCCN4C[C@H](F)C5)nc3c2F)c2c(F)c(F)ccc2c1 (stereo not given in full) | 119 nM | 2 nM
8 | CCc1cccc2cc(O)cc(-c3ncc4c(N5CCCC6(CC(O)C6)C5)nc(OC[C@@]56CCCN5C[C@H](F)C6)nc4c3F)c12 (stereo not given in full) | 22 nM | 1 nM
9 | CCc1c(F)ccc2cc(O)cc(-c3ncc4c(N5CC(O)CC6(CC6)C5)nc(OC[C@@]56CCCN5C[C@H](F)C6)nc4c3F)c12 (stereo not given in full) | 34 nM | 2 nM
10 | Oc1cc(Cl)c(C2CC2)c(-c2ncc3c(N4CCCC5(CCO5)C4)nc(OC[C@@]45CCCN4C[C@H](F)C5)nc3c2F)c1 (stereo not given in full) | 66 nM | 2 nM
